In EP3046573B1, “AMYLIN ANALOGUES” (Zealand Pharma A/S, priority 2013, dated 2015):
Numbered stars: 1 amine (or outer) side, 2 acyl side, 3 side chain; on linkers, the order of the positions; unused ones are H or OH. Bridge positions count the residues as written; N and C are the ends. Square brackets hold non-standard residues; d marks the D form. Peptide text beside a SMILES is read from it. * marks the point of attachment. C20 diacid = O=C(O)CCCCCCCCCCCCCCCCCCC(=O)*; γGlu = O=C(O)[C@H](CCC(=O)[*:2])N[*:1]; NMeI = CC[C@H](C)[C@H](NC)C(=O)O; Sar = CNCC(=O)O

Biological target: T1, human calcitonin receptor (hCTR2) (Homo sapiens, UniProt P30988)
T1 construct: expressed in transfected cells
T1 sequence (P30988 25-474): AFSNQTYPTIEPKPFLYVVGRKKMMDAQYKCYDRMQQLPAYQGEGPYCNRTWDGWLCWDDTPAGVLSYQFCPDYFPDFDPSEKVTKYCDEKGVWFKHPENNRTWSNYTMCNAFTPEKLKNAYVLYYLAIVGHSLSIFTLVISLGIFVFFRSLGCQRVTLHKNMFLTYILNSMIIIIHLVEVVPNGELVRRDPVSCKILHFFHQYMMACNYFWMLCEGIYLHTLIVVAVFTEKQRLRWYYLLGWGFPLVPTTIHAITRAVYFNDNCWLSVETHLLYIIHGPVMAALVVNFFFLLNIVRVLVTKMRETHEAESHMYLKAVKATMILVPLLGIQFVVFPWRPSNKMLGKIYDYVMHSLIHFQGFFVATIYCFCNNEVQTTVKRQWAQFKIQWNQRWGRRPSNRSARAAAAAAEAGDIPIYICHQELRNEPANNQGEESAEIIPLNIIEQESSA
Experiment: hCTR2 assay: induction of cAMP (AlphaScreen cAMP Assay kit) in COS7 cells expressing hCTR2
Format: cell-based
Source text: The cell line COS7, originating from African Green Monkey kidney fibroblast cells, was used for establishment of the stable cell lines described below. The COS7 cellular background was used due to it being RAMP naive, and as such it provides the best available system for testing of the monomeric hCTR and different heterodimeric amylin receptor subtypes functionally generated by introduction of the individual RAMPs.
A cell line expressing the human calcitonin receptor (hCTR2) was generated in the COS7 cellular background as stable clones. In brief, hCTR2 (GI: 4502547) was amplified by PCR using primers encoding terminal restriction sites for subcloning. The 5'-end primers additionally encoded a near Kozak consensus sequence to ensure efficient translation. The fidelity of the DNA encoding the receptor was confirmed by DNA sequencing. The PCR products encoding the receptor were subcloned into a mammalian expression vector containing a neomycin (G418) resistance marker. The mammalian expression vector encoding the receptor was transfected into COS7 cells by a standard liposome transfection method. 48 hours post-transfection, cells were seeded for limited dilution cloning and selected with 1 mg/ml G418 in the culture medium. After 3 weeks, surviving colonies of hCTR2-expressing cells were picked, propagated and tested in the amylin efficacy assay as described in Example 3 below. One hCTR2-expressing clone was chosen for compound profiling.
In vitro activity of test peptides at the hCTR2 and hAMYR3 receptors was assessed by measuring the induction of cAMP following stimulation of the receptor by pramlintide or peptides of the invention using the AlphaScreen® cAMP Assay kit from Perkin-Elmer.
Briefly, COS7 cells expressing hCTR2 (see Example 2, above) were seeded at 30-40,000 cells per well in 96-well microtiter plates coated with 0.01 % poly-L-lysine, and grown for 1 day in culture in 100 µl growth medium [DMEM, 10% FCS, Penicillin (100 IU/ml), Streptomycin (100 µg/ml)]. On the day of analysis, growth medium was removed and the cells were washed once with 200 µl Tyrode buffer [Tyrode's Salts (9.6 g/l), 10 mM HEPES, pH 7.4]. Cells were incubated in 100 µl Tyrode buffer containing increasing concentrations of test peptides, 100 µM IBMX and 0.1% casein for 15 min at 37° C. The reaction was stopped by carefully decanting off the compound/buffer medium and replacing it with lysis/detection buffer (80 µl 0.1 % w/v BSA, 5 mM HEPES, 0.3 % v/v Tween-20 in deionized water). After incubation at room temperature for 10 min., the cAMP content of the resulting cell lysate was estimated according to the AlphaScreen® cAMP Assay manufacturer's instructions. EC50 values and relative efficacy values (in %) compared to reference peptide (Pramlintide) were estimated by computer-aided curve fitting using the 4-parameter logistic (4PL) non-linear model.
The in vitro activity results (expressed as EC50 values) for peptides of the invention and for Pramlintide (reference peptide) are summarized in Table 2, below.

Structure (SMILES)	EC50
CC[C@H](C)[C@@H](C(=O)N[C@@H](CC(C)C)C(=O)N[C@@H](CO)C(=O)N[C@@H](CO)C(=O)N[C@H](C(=O)N[C@@H](CC(N)=O)C(=O)N[C@H](C(=O)NCC(=O)N[C@@H](CO)C(=O)N[C@@H](CC(N)=O)C(=O)N[C@H](C(=O)N1CCC[C@H]1C(N)=O)[C@@H](C)O)C(C)C)[C@@H](C)O)N(C)C(=O)[C@H](C)NC(=O)CN(C)C(=O)[C@H](Cc1ccccc1)NC(=O)[C@H](CC(N)=O)NC(=O)[C@H](CC(N)=O)NC(=O)[C@H](CO)NC(=O)[C@H](CO)NC(=O)[C@H](Cc1c[nH]cn1)NC(=O)[C@H](Cc1c[nH]cn1)NC(=O)[C@H](CC(C)C)NC(=O)[C@H](Cc1ccccc1)NC(=O)[C@H](CCC(=O)O)NC(=O)[C@H](C)NC(=O)[C@@H](CC(C)C)NC(=O)[C@H](CCCNC(=N)N)NC(=O)[C@H](CCC(N)=O)NC(=O)[C@@H](NC(=O)[C@H](C)NC(=O)[C@@H]1CSSC[C@H](NC(=O)[C@H](CCCNC(=N)N)NC(=O)CC[C@H](NC(=O)CCCCCCCCCCCCCCCCCCC(=O)O)C(=O)O)C(=O)N[C@@H](CC(N)=O)C(=O)N[C@@H]([C@@H](C)O)C(=O)N[C@@H](C)C(=O)N[C@@H]([C@@H](C)O)C(=O)N1)[C@@H](C)O [Compound 6, [19CD]-isoGlu-RC()NTATC()ATQR-DLeu-AEFLHHSSNNF-Gly(Me)-A-Ile(Me)-LSSTNVGSNTP-NH2] ({C20 diacid-γGlu}-RCNTATCATQR[dL]AEFLHHSSNNF[Sar]A[NMeI]LSSTNVGSNTP-NH2; disulfide 2-7)	7.8 nM
CC[C@H](C)[C@@H](C(=O)N[C@@H](CC(C)C)C(=O)N[C@@H](CO)C(=O)N[C@@H](CO)C(=O)N[C@H](C(=O)N[C@@H](CC(N)=O)C(=O)N[C@H](C(=O)NCC(=O)N[C@@H](CO)C(=O)N[C@@H](CC(N)=O)C(=O)N[C@H](C(=O)N1CCC[C@H]1C(N)=O)[C@@H](C)O)C(C)C)[C@@H](C)O)N(C)C(=O)[C@H](C)NC(=O)CN(C)C(=O)[C@H](Cc1ccccc1)NC(=O)[C@H](CC(N)=O)NC(=O)[C@H](CC(N)=O)NC(=O)[C@H](CO)NC(=O)[C@H](CO)NC(=O)[C@H](Cc1c[nH]cn1)NC(=O)[C@H](Cc1c[nH]cn1)NC(=O)[C@H](CC(C)C)NC(=O)[C@H](Cc1ccccc1)NC(=O)[C@H](CCC(=O)O)NC(=O)[C@@H](C)NC(=O)[C@H](CC(C)C)NC(=O)[C@H](CCCNC(=N)N)NC(=O)[C@H](CCC(N)=O)NC(=O)[C@@H](NC(=O)[C@H](C)NC(=O)[C@@H]1CSSC[C@H](NC(=O)[C@H](CCCNC(=N)N)NC(=O)CC[C@H](NC(=O)CCCCCCCCCCCCCCCCCCC(=O)O)C(=O)O)C(=O)N[C@@H]([C@@H](C)O)C(=O)N[C@@H](C)C(=O)N[C@@H]([C@@H](C)O)C(=O)N1)[C@@H](C)O [Compound 7, [19CD]-isoGlu-RC()TATC()ATQRL-DAla-EFLHHSSNNF-Gly(Me)-A-Ile(Me)-LSSTNVGSNTP-NH2] ({C20 diacid-γGlu}-RCTATCATQRL[dA]EFLHHSSNNF[Sar]A[NMeI]LSSTNVGSNTP-NH2; disulfide 2-6)	1.9 nM
CC[C@H](C)[C@@H](C(=O)N[C@@H](CC(C)C)C(=O)N[C@@H](CO)C(=O)N[C@@H](CO)C(=O)N[C@H](C(=O)N[C@@H](CC(N)=O)C(=O)N[C@H](C(=O)NCC(=O)N[C@@H](CO)C(=O)N[C@@H](CC(N)=O)C(=O)N[C@H](C(=O)N1CCC[C@H]1C(N)=O)[C@@H](C)O)C(C)C)[C@@H](C)O)N(C)C(=O)[C@H](C)NC(=O)CN(C)C(=O)[C@H](Cc1ccccc1)NC(=O)[C@H](CC(N)=O)NC(=O)[C@H](CC(N)=O)NC(=O)[C@H](CO)NC(=O)[C@H](CO)NC(=O)[C@H](Cc1c[nH]cn1)NC(=O)[C@H](Cc1c[nH]cn1)NC(=O)[C@H](CC(C)C)NC(=O)[C@H](Cc1ccccc1)NC(=O)[C@@H](CCC(=O)O)NC(=O)[C@H](C)NC(=O)[C@H](CC(C)C)NC(=O)[C@H](CCCNC(=N)N)NC(=O)[C@H](CCC(N)=O)NC(=O)[C@@H](NC(=O)[C@H](C)NC(=O)[C@@H]1CSSC[C@H](NC(=O)[C@H](CCCNC(=N)N)NC(=O)CC[C@H](NC(=O)CCCCCCCCCCCCCCCCCCC(=O)O)C(=O)O)C(=O)N[C@@H](CC(N)=O)C(=O)N[C@@H]([C@@H](C)O)C(=O)N[C@@H](C)C(=O)N[C@@H]([C@@H](C)O)C(=O)N1)[C@@H](C)O [Compound 8, [19CD]-isoGlu-RC()NTATC()ATQRLA-DGlu-FLHHSSNNF-Gly(Me)-A-Ile(Me)-LSSTNVGSNTP-NH2] ({C20 diacid-γGlu}-RCNTATCATQRLA[dE]FLHHSSNNF[Sar]A[NMeI]LSSTNVGSNTP-NH2; disulfide 2-7)	2.6 nM
CC[C@H](C)[C@@H](C(=O)N[C@@H](CC(C)C)C(=O)N[C@@H](CO)C(=O)N[C@@H](CO)C(=O)N[C@H](C(=O)N[C@@H](CC(N)=O)C(=O)N[C@H](C(=O)NCC(=O)N[C@@H](CO)C(=O)N[C@@H](CC(N)=O)C(=O)N[C@H](C(=O)N1CCC[C@H]1C(N)=O)[C@@H](C)O)C(C)C)[C@@H](C)O)N(C)C(=O)[C@H](C)NC(=O)CN(C)C(=O)[C@H](Cc1ccccc1)NC(=O)[C@H](CC(N)=O)NC(=O)[C@H](CC(N)=O)NC(=O)[C@H](CO)NC(=O)[C@H](CO)NC(=O)[C@H](Cc1c[nH]cn1)NC(=O)[C@H](Cc1c[nH]cn1)NC(=O)[C@H](CC(C)C)NC(=O)[C@@H](Cc1ccccc1)NC(=O)[C@H](CCC(=O)O)NC(=O)[C@H](C)NC(=O)[C@H](CC(C)C)NC(=O)[C@H](CCCNC(=N)N)NC(=O)[C@H](CCC(N)=O)NC(=O)[C@@H](NC(=O)[C@H](C)NC(=O)[C@@H]1CSSC[C@H](NC(=O)[C@H](CCCNC(=N)N)NC(=O)CC[C@H](NC(=O)CCCCCCCCCCCCCCCCCCC(=O)O)C(=O)O)C(=O)N[C@@H](CC(N)=O)C(=O)N[C@@H]([C@@H](C)O)C(=O)N[C@@H](C)C(=O)N[C@@H]([C@@H](C)O)C(=O)N1)[C@@H](C)O [Compound 9, [19CD]-isoGlu-RC()NTATC()ATQRLAE-DPhe-LHHSSNNF-Gly(Me)-A-Ile(Me)-LSSTNVGSNTP-NH2] ({C20 diacid-γGlu}-RCNTATCATQRLAE[dF]LHHSSNNF[Sar]A[NMeI]LSSTNVGSNTP-NH2; disulfide 2-7)	1.1 nM
CC[C@H](C)[C@@H](C(=O)N[C@@H](CC(C)C)C(=O)N[C@@H](CO)C(=O)N[C@@H](CO)C(=O)N[C@H](C(=O)N[C@@H](CC(N)=O)C(=O)N[C@H](C(=O)NCC(=O)N[C@@H](CO)C(=O)N[C@@H](CC(N)=O)C(=O)N[C@H](C(=O)N1CCC[C@H]1C(N)=O)[C@@H](C)O)C(C)C)[C@@H](C)O)N(C)C(=O)[C@H](C)NC(=O)CN(C)C(=O)[C@H](Cc1ccccc1)NC(=O)[C@H](CC(N)=O)NC(=O)[C@H](CC(N)=O)NC(=O)[C@H](CO)NC(=O)[C@H](CO)NC(=O)[C@H](Cc1c[nH]cn1)NC(=O)[C@@H](Cc1c[nH]cn1)NC(=O)[C@H](CC(C)C)NC(=O)[C@H](Cc1ccccc1)NC(=O)[C@H](CCC(=O)O)NC(=O)[C@H](C)NC(=O)[C@H](CC(C)C)NC(=O)[C@H](CCCNC(=N)N)NC(=O)[C@H](CCC(N)=O)NC(=O)[C@@H](NC(=O)[C@H](C)NC(=O)[C@@H]1CSSC[C@H](NC(=O)[C@H](CCCNC(=N)N)NC(=O)CC[C@H](NC(=O)CCCCCCCCCCCCCCCCCCC(=O)O)C(=O)O)C(=O)N[C@@H](CC(N)=O)C(=O)N[C@@H]([C@@H](C)O)C(=O)N[C@@H](C)C(=O)N[C@@H]([C@@H](C)O)C(=O)N1)[C@@H](C)O [Compound 11, [19CD]-isoGlu-RC()NTATC()ATQRLAEFL-DHis-HSSNNF-Gly(Me)-A-Ile(Me)-LSSTNVGSNTP-NH2] ({C20 diacid-γGlu}-RCNTATCATQRLAEFL[dH]HSSNNF[Sar]A[NMeI]LSSTNVGSNTP-NH2; disulfide 2-7)	2.3 nM
